From patent publication US8173169B2, “Formulation and process for the preparation of modafinil” (Hikma Pharmaceuticals, priority 2007, dated 2012)
Several values for one entry are separate records, joined by “and”; a condition that tells them apart may be missing. Equal entries are not always repeated.

What was measured:
Type in all cases: physicochemical
[1] = Sieve analysis of particle size distribution; details: by weight retained
From the text: In using the Coulter Counter, particles suspended in a weak electrolyte solution are drawn through a small aperture, separating two electrodes between which an electric current flows. The voltage applied across the aperture creates a “sensing zone”. As particles pass through the aperture, they displace their own volume of electrolyte, momentarily increasing the impedance of the aperture. This change in impedance produces a pulse that is digitally processed in real time. The Coulter Principle states that the pulse is directly proportional to the tri-dimensional volume of the particle that produced it. […] Sieve sizing is one of the oldest methods used to determine particle size distributions. Samples of known weight are placed on the largest sieve in a stack of sieves of decreasing size. Upon shaking, sample fractions are caught on the respective sieve corresponding to the size of the particles.
Table 2 summarizes particle size distribution of Modafinil of the present invention measured by sieve size analysis.
(§1) Tables 1 and 2 summarize the particle size distribution of modafinil particles B#62605008s obtained by two different sizing methods. Values are reported in microns. The term d (0.1) denotes the diameter of the largest particle found in 10% of the particles sorted in increasing order. The other four terms refer to the diameter of the largest particle found in each 50%, 85%, 90% and 95% of the particles. The term SD denotes the standard deviation and is a measure of the spread of its values and the term RSD refers to the absolute value of the coefficient variation expressed as a percentage. In Table 2 the percentage by weight of particles retained on each mesh cut is reported.

[2] = Particle size analysis by laser diffraction (Malvern Mastersizer 2000)
From the text: As is appreciated by those in the art, different measurement instruments may provide different measurements of the same particles. […] Applicants have therefore performed modafinil particle size analysis using a Malvern Mastersizer 2000 (Worcestershire, UK), and a Coulter Counter (Hiac/Royco instruments, USA) and mechanical sieving methods.
Malvern Mastersizer utilizes the principle of laser diffraction particle sizing. The principle involved is that during the laser diffraction measurement, particles are passed through a focused laser beam and these particles scatter light at an angle that is inversely proportional to their size. The angular intensity of the scattered light is then measured by a series of photosensitive detectors and the map of scattering intensity versus angle is the primary source of information used to calculate the particle size.
Particle size measurements using the Hiac/Royco were generated on Modafinil particles of the present invention suspended in saturated water. For Malvern laser sizing, Modafinil particles can either be suspended in sunflower oil or sized in the dry form.
as §1

[3] = Dissolution rates of modafinil prepared by different formulation processes
From the text: The choice of excipient is also shown to have a significant influence on the dissolution profiles.

[4] = single trials 1-3, Malvern Mastersizer 2000

## NC(=O)C[S+]([O-])C(c1ccccc1)c1ccccc1 (stereo not shown) [Modafinil B# 62605008s, Modafinil]
[1]; particle size range 0-150 μm
  % Oversize: 3.51%
[1]; particle size range 150-180 μm
  % Oversize: 1.25%
[1]; particle size range 180-250 μm
  % Oversize: 7.02%
[1]; particle size range 250-355 μm
  % Oversize: 52.88%
[1]; particle size range 355-425 μm
  % Oversize: 17.04%
[1]; particle size range 425-500 μm
  % Oversize: 12.78%
[1]; particle size range 500-600 μm
  % Oversize: 5.26%
[1]; particle size range 600-800 μm
  % Oversize: 0.25%
[1]; particle size range >800 μm
  % Oversize: 0.00%
[2]; average of 3 trials
  D (0.35) particle size (% undersize): 267.3 microns
  d (0.1) particle size (% undersize): 161.37 microns
  d (0.5) particle size (% undersize): 322.59 microns
  d (0.85) particle size (% undersize): 506.71 microns
  d (0.9) particle size (% undersize): 557.46 microns
  d (0.95) particle size (% undersize): 631.82 microns
[2]; conclusion from two sizing methods (Tables 1 and 2)
  share of particles greater than 220 um: at least 65%
[2]; [4]
  D (0.35) particle size (% undersize): 273.94 microns and 266.93 microns and 261.04 microns
  d (0.1) particle size (% undersize): 172.45 microns and 159.38 microns and 152.26 microns
  d (0.5) particle size (% undersize): 328.58 microns and 322.53 microns and 316.66 microns
  d (0.85) particle size (% undersize): 510.24 microns and 507.09 microns and 502.79 microns
  d (0.9) particle size (% undersize): 561.92 microns and 558.30 microns and 552.16 microns
  d (0.95) particle size (% undersize): 633.06 microns and 632.46 microns and 629.94 microns

## NC(=O)C[S+]([O-])C(c1ccccc1)c1ccccc1 (stereo not shown) [Modafinil particles, Modafinil]
[3]; 5 mins
  % Modafinil Dissolved: 1.80%
[3]; 10 mins
  % Modafinil Dissolved: 5.19%
[3]; 15 mins
  % Modafinil Dissolved: 9.73%
[3]; 20 mins
  % Modafinil Dissolved: 14.31%
[3]; 30 mins
  % Modafinil Dissolved: 23.19%
[3]; 40 mins
  % Modafinil Dissolved: 31.25%
[3]; 60 mins
  % Modafinil Dissolved: 44.09%
[3]; 90 mins
  % Modafinil Dissolved: 71.42%
[3]; result in words
  dissolution profile compared with PROVIGIL 200: significantly slower
